{"source": "patent US9724337B2", "about": "“AG-205 for the treatment of breast cancer” (University of Kentucky Research Foundation, priority 2009, dated 2017)", "key": {"MDA-MB-468 cells": {"test_system": "MDA-MB-468 cells", "test": "Viability / proliferation of MDA-MB-468 cells", "type": "cell-based, human", "details": "MDA-MB-468 cells, increasing doses of AG1478, MTT assay", "experimental": "(§1) Tissue culture. MDA-MB-468 cells were a kind gift from Dr. Rina Plattner of the University of Kentucky and were maintained in medium consisting of Dulbecco's Modified Eagle Medium containing 10% serum supreme (Fisher) and antibiotics. Cells were grown at 37° C. in 5% CO2 in air. A549 and HCC827 lung cancer cells, as well as SK-Br-3 breast cancer cells were obtained from the ATCC (American Type Culture Collection) and were grown under the same conditions. The H1650 lung cancer cell line was a kind gift from Dr. Heinz Kohler of the University of Kentucky. The Pgrmc1 ligand AG-205 was purchased from Timtec, Inc. The EGFR inhibitor AG1478 was from Biomol, Inc. and was used at a concentration range of 0.8-40 μM.\n(§2) Proliferation, anchorage-independent growth and migration assays. For growth curves, cells were plated in 24 well dishes and grown in 10% serum-containing medium. At various times, the cells were harvested with trypsin and fixed with formaldehyde added to a final concentration of 3.7%. Following the harvest of the final time point, the cells from each time point were counted using a Bright-line hemocytometer (Hausser Scientific).\n(§3) MTT viability assays were performed as described previously. Briefly, cells were plated in 96-well tissue culture dishes and grown in various media with different drug doses. The cells were then incubated with 0.5 mg/ml of 3-[4,5-dimethylthiazol-2-y]-2,5-diphenyltetrazolium bromide for 1.5 hours, at which time the media was removed, the precipitated crystals were dissolved in dimethyl sulfoxide, and the absorbance at 590 nm was measured using a Bio-Tek μQuant spectrophotometer."}, "A549 cells": {"test_system": "A549 cells", "test": "Viability of A549 cells", "type": "cell-based, human", "details": "A549 cells, single agent", "experimental": "(A) Pgrmc1 (SEQ ID NO: 7) shares homology with AtMAPR2 (SEQ ID NO: 8) (underlined residues), which was the target for a screen for small molecule ligands. The putative heme-binding Tyr106 and Tyr112 are indicated with black boxes. (B) The molecular structure of AG-205 includes multiple aromatic components. (C) Spectroscopic scan of Pgrmc1 with vehicle control compared with vehicle plus 50 µM AG-205. The decrease in relative absorbance at 400 nm is consistent with an AG-205-induced change in the spectral properties of Pgrmc1-heme. The scan is representative of four separate scans using different Pgrmc1 protein preparations. The lower scan is a comparison of purified Pgrmc1 without and with the vehicle control (DMSO). Panels D (A549 cells) and E (MDA-MB-231 cells) are viability assays of cells maintained in 0.1% serum (solid line) or 10% serum (dashed line) and treated with increasing doses of AG-205. Percent viability was determined by cell counting, and “% viability” refers to the cell number relative to the untreated control.\nas §1, §2, §3"}}, "data": [{"smiles": "COc1cc2ncnc(Nc3cccc(Cl)c3)c2cc1OC", "note": "[AG1478, reference compound]", "values": [{"measurement": "change in proliferation rate between siCON and siPGR-transfected cells", "setting": "MDA-MB-468 cells", "result": "largely blocked"}, {"measurement": "decrease in viability / cells killed", "setting": "A549 cells", "result": 25, "unit": "%"}]}]}
